Test results from ChEMBL document CHEMBL1125202 (J Med Chem, 1991).

Target: Sodium/potassium-transporting ATPase
Assay: Inhibition of [3H]ouabain binding to Na/K ATP-ase in dog heart muscle
Type: tissue-based, Canis lupus familiaris, Muscle tissue

**Q.** `C[C@]12CC[C@H](OC[C@H]3O[C@H](O)[C@H](O)[C@@H](O)[C@@H]3O)CC1CC[C@@H]1[C@@H]2CC[C@]2(C)[C@@H](C3=CC(=O)OC3)CC[C@@]12O` (stereo not given in full) was tested. Which IC50 did it give?
**A.** 7 nM

**Q.** `CC(O)C1CCC2(O)C3CCC4C[C@@H](OC[C@H]5O[C@@H](O)[C@H](O)[C@H](O)[C@H]5O)CCC4(C)C3CCC12C` (stereo not given in full) was tested. Which IC50 did it give?
**A.** 400 nM

**Q.** Which IC50 does the source give for `CC(=O)C1CCC2(O)C3CCC4C[C@@H](OC[C@H]5O[C@@H](O)[C@H](O)[C@H](O)[C@H]5O)CCC4(C)C3CCC12C` (stereo not given in full) here?
**A.** 500 nM

**Q.** With `C[C@]12CC[C@H](OC[C@H]3O[C@H](O)[C@H](O)[C@@H](O)[C@@H]3O)CC1CC[C@@H]1[C@@H]2CC[C@]2(C)[C@H](C3=CC(=O)OC3)CC[C@@]12O` (stereo not given in full) as the molecule, how does the IC50 read?
**A.** 3 nM

**Q.** Which IC50 does the source give for `CC(O)C1CCC2(O)C3CCC4C[C@H](OC[C@H]5O[C@@H](O)[C@H](O)[C@H](O)[C@H]5O)CCC4(C)C3CCC12C` (stereo not given in full) here?
**A.** 75 nM

**Q.** With `CC(=O)C1CCC2(O)C3CCC4C[C@H](OC[C@H]5O[C@@H](O)[C@H](O)[C@H](O)[C@H]5O)CCC4(C)C3CCC12C` (stereo not given in full) as the molecule, how does the IC50 read?
**A.** 150 nM

**Q.** With `C[C@]12CC[C@H](OC[C@@H]3O[C@H](OC[C@@H]4O[C@H](OC[C@@H]5O[C@H](O)C[C@@H](O)[C@H]5O)C[C@@H](O)[C@H]4O)C[C@@H](O)[C@H]3O)C[C@@H]1CC[C@@H]1[C@@H]2CC[C@]2(C)[C@@H](C3=CC(=O)OC3)CC[C@@]12O` as the molecule, how does the IC50 read?
**A.** 8 nM

**Q.** How did the IC50 turn out when `C[C@]12CC[C@H](OC[C@@H]3O[C@H](O)C[C@@H](O)[C@H]3O)C[C@@H]1CC[C@@H]1[C@@H]2CC[C@]2(C)[C@@H](C3=CC(=O)OC3)CC[C@@]12O` was run?
**A.** 9 nM

**Q.** `CC(O)[C@H]1CC[C@@]2(O)[C@@H]3CC[C@H]4C[C@@H](OC[C@@H]5O[C@H](OC[C@@H]6O[C@H](OC[C@@H]7O[C@H](O)C[C@@H](O)[C@H]7O)C[C@@H](O)[C@H]6O)C[C@@H](O)[C@H]5O)CC[C@]4(C)[C@H]3CC[C@]12C` (stereo not given in full) was tested. Which IC50 did it give?
**A.** 650 nM

**Q.** How did the IC50 turn out when `CC(=O)[C@H]1CC[C@@]2(O)[C@@H]3CC[C@H]4C[C@@H](OC[C@@H]5O[C@H](OC[C@@H]6O[C@H](OC[C@@H]7O[C@H](O)C[C@@H](O)[C@H]7O)C[C@@H](O)[C@H]6O)C[C@@H](O)[C@H]5O)CC[C@]4(C)[C@H]3CC[C@]12C` was run?
**A.** 1000 nM

**Q.** Which IC50 does the source give for `CC(O)[C@H]1CC[C@@]2(O)[C@@H]3CC[C@H]4C[C@@H](OC[C@@H]5O[C@H](O)C[C@@H](O)[C@H]5O)CC[C@]4(C)[C@H]3CC[C@]12C` (stereo not given in full) here?
**A.** 650 nM

**Q.** How did the IC50 turn out when `C[C@]12CCCC[C@@H]1CC[C@@H]1[C@@H]2CC[C@]2(C)[C@@H](C3=CC(=O)OC3)CC[C@@]12O` was run?
**A.** 70 nM

**Q.** How did the IC50 turn out when `C[C@]12CC[C@H](OC[C@@H]3O[C@H](OC[C@@H]4O[C@H](O)C[C@@H](O)[C@H]4O)C[C@@H](O)[C@H]3O)C[C@@H]1CC[C@@H]1[C@@H]2CC[C@]2(C)[C@@H](C3=CC(=O)OC3)CC[C@@]12O` was run?
**A.** 8 nM

**Q.** With `CC(O)[C@H]1CC[C@@]2(O)[C@@H]3CC[C@H]4CCCC[C@]4(C)[C@H]3CC[C@]12C` (stereo not given in full) as the molecule, how does the IC50 read?
**A.** 24000 nM

**Q.** With `CC(=O)[C@H]1CC[C@@]2(O)[C@@H]3CC[C@H]4CCCC[C@]4(C)[C@H]3CC[C@]12C` as the molecule, how does the IC50 read?
**A.** > 200000 nM

**Q.** With `C[C@H](O)C1CC[C@@]2(O)[C@@H]3CC[C@H]4C[C@@H](OC[C@@H]5O[C@H](OC[C@@H]6O[C@H](O)C[C@@H](O)[C@H]6O)C[C@@H](O)[C@H]5O)CC[C@]4(C)[C@H]3CC[C@]12C` (stereo not given in full) as the molecule, how does the IC50 read?
**A.** 650 nM

**Q.** With `CC(=O)[C@H]1CC[C@@]2(O)[C@@H]3CC[C@H]4C[C@@H](OC[C@@H]5O[C@H](OC[C@@H]6O[C@H](O)C[C@@H](O)[C@H]6O)C[C@@H](O)[C@H]5O)CC[C@]4(C)[C@H]3CC[C@]12C` as the molecule, how does the IC50 read?
**A.** 800 nM

**Q.** For `CC(=O)[C@H]1CC[C@@]2(O)[C@@H]3CC[C@H]4C[C@@H](OC[C@@H]5O[C@H](O)C[C@@H](O)[C@H]5O)CC[C@]4(C)[C@H]3CC[C@]12C`, which IC50 is on record?
**A.** 1300 nM

**Q.** Which IC50 does the source give for `CC(O)[C@H]1CC[C@@]2(O)[C@@H]3CCC4C[C@@H](O)CC[C@]4(C)[C@H]3CC[C@]12C` (stereo not given in full) here?
**A.** 6400 nM

**Q.** For `CC(=O)[C@H]1CC[C@@]2(O)[C@@H]3CC[C@H]4C[C@@H](O)CC[C@]4(C)[C@H]3CC[C@]12C`, which IC50 is on record?
**A.** 20000 nM
